The data set concerns horses. Description: Target Animal Safety (TAS) study / toxicity of formulations in horses. The note with it: in vivo. Type of data set: in vivo. The text has this:
The drug product vehicle contains about 35-45 wt % alcohol, 46 wt % propylene glycol and 10 wt % WFI. […] Test doses (in horses) with the vehicle confirmed that the dose toxicity was due to the vehicle. More specifically, propylene glycol was believed to be the cause of toxicity.

Regarding `CNC[C@H](O)[C@@H](O)[C@H](O)[C@H](O)CO` [meglumine, 1-Deoxy-1-methylaminosorbitol], the Toxicity to horses entry was “non-toxic”.

Values taken from patent US20220387433A1, “TYPE V PHOSPHODIESTERASE INHIBITOR COMPOSITIONS, METHODS OF MAKING THEM AND METHODS OF USING THEM IN PREVENTING OR TREATING ELEVATED PULMONARY VASCULAR PRESSURE OR PULMONARY HEMORRHAGES” (American Regent, Inc., priority 2019, published 2022).
